Test results reported in patent US12173088B2, “Anti-microbial peptides” (priority 2018, dated 2024).
Converted amounts (≈) assume the structure as drawn. “Also recorded” adds a separate entry of the source. Read-outs that look alike come from different tables or passages of the source. Ends that are not written are not given here. Peptide text beside a SMILES is read from it.

Legend:
K. pneumoniae E406-17 = assay: microbe, parasite or virus in culture; type: cell-based, Klebsiella pneumoniae; details: read-out: MIC K. pneumoniae E406-17
Procedure: (§1) The antibacterial activity of peptides was evaluated using a standard broth microdilution protocol with minor modifications as described (Mishra, et al. (2012) J. Am. Chem. Soc., 134:12426-12429). In brief, logarithmic phase bacterial cultures (i.e., optical density at 600 nm≈0.5) were diluted to OD600 0.001 and partitioned into a 96-well polystyrene microplate at 90 μL per well. After treatment with 10 μL of peptide solutions two fold diluted to various concentrations, microplates were incubated at 37° C. overnight and read on a ChroMate® 4300 Microplate Reader at 630 nm (GMI, Ramsey, MN). […] To study the influence of medium conditions on the antimicrobial activity of peptides against S. aureus USA300, up to 200 mM sodium chloride (NaCl), 2 mM of calcium chloride, 5-10% of human serum, mouse plasma, fluid, or supernatants of tissue homogenates were included into the assays.
(§2) The bacterial strains used include the Gram-positive bacteria methicillin-resistant Staphylococcus aureus USA300, Enterococcus faecium V286-17 (VRE), S. aureus M838-17 (MRSA) and Gram-negative bacteria E. coli E423-17, E416-7 (ampC), P. aeruginosa E411-17, PA01, K. pneumoniae E406-17, ATCC13883, and A. baumannii B26-16. Bacteria were cultivated in tryptic soy broth (TSB) from BD Bioscience.
(§3) The antibacterial activity of peptides was evaluated using a standard broth microdilution protocol with minor modifications (Mishra, et al. (2017) Acta Biomater., 49:316-328). In brief, logarithmic phase bacterial cultures (i.e., optical density at 600 nm≈0.5) were diluted to 0.001 OD and aliquoted 90 μL per well into a 96-well polystyrene microplate. Added 10 μL peptides per well with various concentrations, plates were incubated at 37° C., overnight. Post incubation the plates are read at 630 nm using a ChroMate® Microplate Reader (GMI). […] To study the influence of medium conditions on the antimicrobial activity of peptides against S. aureus USA300 at different pHs (6.8, 7.2, and 8.0), 150 mM sodium chloride (NaCl), 5-10% of human serum, mouse plasma, and peritoneal fluid were included into the assays.

S. aureus USA300 [1] = assay: microbe, parasite or virus in culture; type: cell-based, Staphylococcus aureus; details: for MIC: read-out: MIC S. aureus USA300 (MRSA)
Method in brief: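 Broth microdilution: log-phase cultures in tryptic soy broth diluted to OD600 0.001, exposed to two-fold diluted peptides at 37° C overnight, growth read at 630 nm. Medium effects on S. aureus USA300 tested with up to 200 mM NaCl, 2 mM CaCl2, 5-10% human serum, mouse plasma, fluids or tissue homogenate supernatants.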

S. aureus M838-17 (MRSA) = assay: microbe, parasite or virus in culture; type: cell-based, Staphylococcus aureus; details: Staphylococcus aureus, MRSA; Table 7; by weight; read-out: MIC S. aureus M838-17 (MRSA)
Method in brief: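 Peptides were serially diluted two-fold against bacteria grown in tryptic soy broth to log phase (OD600 ≈0.5), then seeded at OD600 0.001. Plates were held overnight at 37° C and read at 630 nm. USA300 was also tested at pH 6.8, 7.2 and 8.0, with 150 mM NaCl or 5-10% serum, plasma or peritoneal fluid.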

A. baumannii B26-16 = assay: microbe, parasite or virus in culture; type: cell-based, Acinetobacter baumannii; details: read-out: MIC A. baumannii B26-16
Procedure: as §2, §3

S. aureus USA300 [2] = assay: Propidium iodide membrane permeation; type: cell-based, Staphylococcus aureus
Procedure: The membrane permeation experiment was performed as described with minor modifications (Wang, et al. (2005) J. Biol. Chem., 280:5803-5811). Serially diluted 10× peptides (10 μL each well) were created in 96-well microtiter plates. Propidium iodide (2 μL) at a fixed concentration of 20 μM were added to each well followed by 88 μL of the S. aureus USA300 culture (a final OD600˜0.1 in TSB media). The plate was incubated at 37° C. with continuous shaking at 100 rpm in a FLUOstar® Omega (BMG LABTECH, Cary, NC) microplate reader. The fluorescence from the plate was read every 5 minutes for a total duration of 2 hours with an excitation and emission wavelengths of 584 nm and 620 nm, respectively. Plots were made using average values of duplicated experiments with MARS software.
The experiment was performed as described previously with minor modifications (Mishra, et al. (2017) Acta Biomater., 49:316-328). Serially diluted 10× peptides (10 μL each well) were created in 96-well microtiter plates. Propidium iodide (2 μL) at a fixed concentration of 20 μM were added to each well followed by 88 μL of the S. aureus USA300 culture (a final OD600˜0.1 in TSB media or PBS). The plate was incubated at 37° C. with continuous shaking at 100 rpm in a FLUOstar® Omega (BMG LABTECH) microplate reader. The samples fluorescence was read at every 5 minutes for 24 cycles with an excitation and emission wavelengths of 584 nm and 620 nm, respectively. Plots generated using average values from the experiments using GraphPad Prism.

E. coli E423-17 = assay: microbe, parasite or virus in culture; type: cell-based, Escherichia coli; details: read-out: MIC E. coli E423-17
Excerpt: (§4) The bacterial strains used include the Gram-positive strains Staphylococcus aureus USA300 LAC, S. epidermidis 1457, and Bacillus subtilis 168, as well as the Gram-negative isolates Escherichia coli K12 and Acinetobacter baumannii B2367-12. Additional, drug resistance strains include Gram-positive Enterococcus faecium V286-17 (VRE) and S. aureus M838-17 (MRSA) and Gram-negative E. coli E423-17, E. coli E416-17 (ampC), and P. aeruginosa E411-17. Bacteria were cultivated in tryptic soy broth (TSB) (BD Bioscience, MD).
as §1, §2, §3

S. aureus USA300 [3] = type: in vivo, Staphylococcus aureus; details: different tissues; single i.p. injection; positive control
Procedure: Female C57BL/6 mice (6 weeks old) were purchased from Charles River. After environment adaptation, mice were induced neutropenic by administering two doses of cyclophosphamide on day 1 (150 mg/kg) and Day 4 (100 mg/kg). This cyclophosphamide administration was skipped for experiments using non-neutropenic mice (i.e., normal mice). On day 5, mice were infected with S. aureus USA300 LAC (˜2×10^6 CFU per mouse) via intraperitoneal injection (i.p.). For the treatment groups, mice were i.p. treated 2 hours post infection with peptides at a single dose of 5 mg/kg. Both positive and negative controls were included. At the end of the experiments, all animals were sacrificed according to institutional guidelines. Organs, including spleen, lung, kidney, and liver, were harvested, weighed, placed in sterile PBS and stored on ice. Harvested animal organs were subsequently homogenized using homogenizer (Omni, Kennesaw, GA). Proper dilutions, especially for untreated control groups, were made to get countable colonies. Blood agar plates were then incubated overnight at 37° C. The bacteria grown on plates were enumerated and plotted using the Graph pad Prism software.
Female C57BL/6 or Balb/c mice (6 weeks old) were purchased from Charles River. The mice were induced neutropenic by administering two doses of cyclophosphamide on day 1 (150 mg/kg) and Day 4 (100 mg/kg). On day 5, mice were infected with S. aureus USA300 (˜2×10^6 CFU per mouse) or K. pneumoniae E406-17 (˜5×10^5 CFU per mouse) via intraperitoneal injection (i.p.). For the treatment groups, mice were i.p. or intravenous (i.v.) treated 2 hours post infection with peptides at a single dose of 5, 10, or 15 mg/kg. Both positive and negative controls are used. At the end of the experiments, all animals were sacrificed according to institutional guidelines. […] The CFU of each mouse was plotted as an individual point and error bars represent the deviation within the experimental group. * p<0.05 ** p<0.01, ***p<0.001 and NS represents no significance (determined by Mann-Whitney test).

E. faecium V286-17 (VRE) = assay: microbe, parasite or virus in culture; type: cell-based, Enterococcus faecium; details: read-out: MIC E. faecium V286-17 (VRE)
Excerpt: as §4, §1, §2, §3

P. aeruginosa E411-17 = assay: microbe, parasite or virus in culture; type: cell-based, Pseudomonas aeruginosa; details: read-out: MIC P. aeruginosa E411-17
Excerpt: as §4, §1, §2, §3

E. coli ATCC 25922 = type: cell-based, Escherichia coli; details: ATCC 25922
Method in brief: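 Peptides, serially diluted two-fold, were incubated overnight at 37 °C with E. coli ATCC 25922 from log-phase cultures adjusted to OD600 0.001. Turbidity at 630 nm served as the read-out in this broth microdilution format.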

K. pneumoniae ATCC 13883 = type: cell-based, Klebsiella pneumoniae; details: ATCC 13883
Method in brief: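 Broth microdilution in tryptic soy broth: log-phase cultures (OD600 ≈0.5) diluted to OD600 0.001, given two-fold peptide dilutions, incubated overnight at 37° C. Growth read at 630 nm.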

[4] = literature; cited from earlier work
[5] = Klebsiella pneumoniae, E40617, Table 14
[6] = Staphylococcus aureus, MRSA / USA300, Table 14
[7] = Acinetobacter baumannii, B2616, Table 14
[8] = Escherichia coli, E42317, Table 14
[9] = Enterococcus faecium, VRE, Table 7
[10] = Enterococcus faecium, VRE, Table 14
[11] = Pseudomonas aeruginosa, E41117, Table 14

Compound | MIC (K. pneumoniae E406-17; [5]) [µM] | MIC (S. aureus USA300 [1]; [6]) [µM] | MIC (S. aureus M838-17 (MRSA)) [µM] | MIC (A. baumannii B26-16; [7]) [µM] | Propidium iodide membrane permeation (S. aureus USA300 [2]) | MIC (E. coli E423-17; [8]) [µM] | MIC (E. faecium V286-17 (VRE); [9]) [µM] | MIC (E. faecium V286-17 (VRE); [10]) [µM] | MIC (P. aeruginosa E411-17; [11]) [µM] | In vivo outcome [4] | further results
CCCCCCCCCC(=O)N[C@@H](Cc1c[nH]c2ccccc12)C(=O)N[C@H](CC(N)=O)C(=O)N[C@@H](CC(=O)O)C(=O)N[C@@H]1C(=O)NCC(=O)N[C@@H](CCCN)C(=O)N[C@@H](CC(=O)O)C(=O)N[C@H](C)C(=O)N[C@@H](CC(=O)O)C(=O)NCC(=O)N[C@H](CO)C(=O)N[C@@H]([C@H](C)CC(=O)O)C(=O)N[C@@H](CC(=O)c2ccccc2N)C(=O)O[C@@H]1C [Daptomycin] | > 8 | 4 (≈ 6.48 µg/mL) | 0.78 (≈ 1.26 µg/mL) | > 8 | fluorescence increase; also recorded: permeated bacterial membranes | > 8 | 3.1 (≈ 5.02 µg/mL) | 4 (≈ 6.48 µg/mL) | > 8 |  | Decrease in bacterial burden (S. aureus USA300 [3]): 1-4 logs
CO[C@H]1/C=C/O[C@@]2(C)Oc3c(C)c(O)c4c(O)c(cc(O)c4c3C2=O)NC(=O)/C(C)=C\C=C\[C@H](C)[C@H](O)[C@@H](C)[C@@H](O)[C@@H](C)[C@H](OC(C)=O)[C@@H]1C [Rifamycin, reference compound] | > 8 | 0.25 (≈ 0.174 µg/mL) | 1.56 (≈ 1.09 µg/mL) | > 8 | failed to permeate | > 8 | 12.5 (≈ 8.72 µg/mL) | > 8 | > 8 |  | 
CC[C@H](C)[C@H](NC(=O)[C@H](CCCCN)NC(=O)[C@H](CCCNC(=N)N)NC(=O)[C@H](CC(C)C)NC(=O)[C@H](Cc1c[nH]c2ccccc12)NC(=O)[C@H](Cc1c[nH]c2ccccc12)NC(=O)[C@@H](N)Cc1c[nH]c2ccccc12)C(=O)N[C@@H](Cc1c[nH]c2ccccc12)C(N)=O [WW291, WWWLRKIW] (H-WWWLRKIW-NH2; N-terminus and C-terminus assumed) |  |  |  |  | permeate bacterial membranes |  |  |  |  |  | MIC (K. pneumoniae E406-17; E406-17): ≥32 µM; MIC S. aureus USA 300 (S. aureus USA300 [1]; USA300): 3.1 µM (≈ 3.94 µg/mL); MIC (S. aureus USA300 [1]; USA300): 4 µM (≈ 5.09 µg/mL); MIC (A. baumannii B26-16; B26-16): 16 µM (≈ 20.4 µg/mL); MIC (E. coli E423-17; E423-17): 8 µM (≈ 10.2 µg/mL); MIC (E. faecium V286-17 (VRE); V286-17 (VRE)): 4 µM (≈ 5.09 µg/mL); MIC E. coli ATCC 25922 (E. coli ATCC 25922): 6.2 to 12.5 µM; MIC (P. aeruginosa E411-17; E411-17): >32 µM; MIC K. pneumoniae ATCC 13883 (K. pneumoniae ATCC 13883): 12.5 µM (≈ 15.9 µg/mL)
ALWMTLLKKVLKAAAK (not fully specified (C-terminus)) [DS4(1-16)] |  |  |  |  |  |  |  |  |  | failure | 
GIGKFLKKAKKFGKAFVKILKK (not fully specified (C-terminus)) [MSI-78] |  |  |  |  |  |  |  |  |  | failure | 
RPDKPRPYLPRPRPPRPVR (not fully specified (C-terminus)) [Peptide A3-APO] |  |  |  |  |  |  |  |  |  | showed in vivo efficacy | 
